# Paper PMC7926928, “Preliminary Investigation of the Antioxidant, Anti-Diabetic, and Anti-Inflammatory Activity of Enteromorpha intestinalis Extracts” (Molecules, 2021)
# System: T1, trypsin
# T1 construct: gene PRSS1
# Test: casein digestion, absorbance at […] nm
# Assay type: biochemical
# Settings: casein 0.8%, 20 mM Tris-HCl pH 7.4, 37 °C, 20 min
structure (smiles),measurement,value
CC(=O)Oc1ccccc1C(=O)O [acetylsalicylic acid],Acetylsalicylic Acid,5.11 ± 0.97 µg/mL
